According to patent US4235996A, “Bis(2-imida zolin-2-ylhydrazone)-9,10-dihydro-9,10-anthracenedicarboxaldehydes” (American Cyanamid Company, priority 1978, dated 1980):
≈ marks a conversion by molar mass, not a printed value. Where “and” joins values, the source holds several entries; their conditions need not be identical. Equal entries are not always repeated. Structures can show the parent of a compound that is named as a salt.

Tests used:
[1] = tested on: Staphylococcus aureus St. Paul (NYC 78-1); test: Antibacterial spectrum, agar-dilution streak-plate technique; format: cell-based; settings: 37° C., 18 hours, read-out: Minimal Inhibitory Concentration
Experimental: (§1) The antibacterial spectrum, in terms of the concentration required to inhibit the growth of various typical bacteria, was determined in a standard manner by the agar-dilution streak-plate technique. A Steers multiple inocula replicator was used with incubation at 37° C. for 18 hours in Mueller-Ninton agar. The results for typical compounds of this invention are set forth in Table III below as the minimal inhibitory concentration in micrograms per milliliter.

[2] = tested on: Staphylococcus aureus OSU 75-2; test: as above; format: cell-based; settings: OSU752, 37° C., 18 hours, read-out: Minimal Inhibitory Concentration
Experimental: as §1

[3] = tested on: Staphylococcus aureus Q 74-11; test: as above; format: cell-based; settings: 37° C.; for MIC: Staphylococcus aureus, Q7411, 18 h, read-out: Minimal Inhibitory Concentration
Experimental: as §1

Enterococcus SM 77-15 = test: as above; format: cell-based; settings: SM7715, 37° C., 18 hours, read-out: Minimal Inhibitory Concentration
Experimental: as §1

[4] = tested on: lymphocytic leukemia P388; test: Lymphocytic leukemia P388 test (survival of transplanted mice); format: in vivo
Experimental: Lymphocytic leukemia P388 test
The animals used are mice, all of one sex, weighing a minimum of 18 g. and all within a 3 gram weight range. There are 5 or 6 animals per test group. The tumor transplant is by intraperitoneal injection of 0.1 ml. or 0.5 ml. of dilute ascitic fluid containing 10^6 cells of lymphocytic leukemia p388. The test compounds are administered intraperitoneally on days one, 5 and 9 (relative to tumor inoculation) at various doses. The animals are weighed and survivors are recorded on a regular basis for 60 days. The median survival time and the ratio of survival time for treated (T)/control (C) animals are calculated. The positive control compound is 5-fluorouracil given as an intraperitoneal injection on days one, 5 and 9. […] The criterion for efficacy is T/C×100≥125%.

melanotic melanoma B16 = test: Melanotic Melanoma B16 test (survival of transplanted mice); format: in vivo, C57BC/6 mice
Experimental: The animals used are C57BC/6 mice, all of the same sex, weighing a minimum of 17 g. and all within a 3 g. weight range. There are normally 10 animals per test group. A one-gram portion of melanotic melanoma B16 tumor is homogenized in 10 ml. of cold balanced salt solution and a 0.5 ml. aliquot of the homogenate is implanted intraperitoneally into each of the test mice. The test compounds are administered intraperitoneally on days one through 9 (relative to tumor inoculation) at various doses. The animals are weighed and survivors are recorded on a regular basis for 60 days. The median survival time and the ratio of survival time for treated (T)/control (C) animals are calculated. The positive control compound is 5-fluorouracil given as a 20 mg./kg. injection. The results of this test with representative compounds of the present invention appear in Table II below. The criterion for efficacy is T/C×100≥125%.

[5] = 3.12 mg./kg., i.p. days 1, 5 and 9
[6] = 3.12 mg./kg., i.p. days 1, 5 and 9, efficacy criterion ≥125%
[7] = 6.25 mg./kg., i.p. days 1, 5 and 9
[8] = 6.25 mg./kg., i.p. days 1, 5 and 9, efficacy criterion ≥125%
[9] = 12.5 mg./kg., i.p. days 1, 5 and 9
[10] = 12.5 mg./kg., i.p. days 1, 5 and 9, efficacy criterion ≥125%
[11] = 25 mg./kg., i.p. days 1, 5 and 9
[12] = 25 mg./kg., i.p. days 1, 5 and 9, efficacy criterion ≥125%
[13] = 3 mg./kg., i.p. days one through 9
[14] = 3 mg./kg., i.p. days one through 9, efficacy criterion ≥125%
[15] = 6 mg./kg., i.p. days one through 9
[16] = 6 mg./kg., i.p. days one through 9, efficacy criterion ≥125%
[17] = 12 mg./kg., i.p. days one through 9
[18] = 12 mg./kg., i.p. days one through 9, efficacy criterion ≥125%
[19] = 50 mg./kg., i.p. days 1, 5 and 9
[20] = 50 mg./kg., i.p. days 1, 5 and 9, efficacy criterion ≥125%
[21] = 1.5 mg./kg., i.p. days one through 9
[22] = 1.5 mg./kg., i.p. days one through 9, efficacy criterion ≥125%
[23] = 40 mg./kg., i.p. days 1, 5 and 9 (positive control)
[24] = 60 mg./kg., i.p. days 1, 5 and 9 (positive control)
[25] = 20 mg./kg. injection (positive control)

SMILES | Median Survival [4, 5] [days] | T/C × 100 [4, 6] [%] | Median Survival [4, 7] [days] | T/C × 100 [4, 8] [%] | Median Survival [4, 9] [days] | T/C × 100 [4, 10] [%] | Median Survival [4, 11] [days] | T/C × 100 [4, 12] [%] | Median Survival (melanotic melanoma B16; [13]) [days] | T/C × 100 (melanotic melanoma B16; [14]) [%] | Median Survival (melanotic melanoma B16; [15]) [days] | T/C × 100 (melanotic melanoma B16; [16]) [%] | Median Survival (melanotic melanoma B16; [17]) [days] | T/C × 100 (melanotic melanoma B16; [18]) [%] | Median Survival [4, 19] [days] | T/C × 100 [4, 20] [%] | further results
COc1ccc(OC)c2c1C(C=NNC1=NCCN1)c1ccccc1C2C=NNC1=NCCN1 (centres unmarked) [1,4-Dimethoxy-bis-(2-imidazolin-2-ylhydrazone)-9,10-dihydro-9,10-anthracenedicarboxaldehyde] | – | – | – | – | – | – | – | – | – | – | – | – | – | – | – | – | MIC [1]: 128 µg/mL (≈ 278 µM); MIC [2]: 128 µg/mL (≈ 278 µM); MIC [3]: 64 µg/mL (≈ 139 µM); MIC (Enterococcus SM 77-15): 256 µg/mL (≈ 556 µM)
Clc1cccc2c1C(C=NNC1=NCCN1)c1ccccc1C2C=NNC1=NCCN1 (centres unmarked) [1-Chloro-bis(2-imidazolin-2-ylhydrazone)-9,10-dihydro-9,10-anthracenedicarboxaldehyde dihydrochloride] | 15.5 | 163 | 16.5 | 174 | 19.5 | 205 | 21.0 | 221 | 22.0 | 129 | 25.5 | 150 | 31.0 | 182 | – | – | –
Clc1ccc2c(c1)C(C=NNC1=NCCN1)c1ccccc1C2C=NNC1=NCCN1 (centres unmarked) [2-Chloro-bis(2-imidazolin-2-ylhydrazone)-9,10-dihydro-9,10-anthracenedicarboxaldehyde dihydrochloride] | 17.5 | 175 | 18.5 | 185 | 18.0 | 180 | 18.0 | 180 | – | – | – | – | – | – | 20.0 | 200 | –
Cc1ccc2c(c1)C(C=NNC1=NCCN1)c1ccccc1C2C=NNC1=NCCN1 (centres unmarked) [2-Methyl-bis(2-imidazolin-2-ylhydrazone)-9,10-dihydro-9,10-anthracenedicarboxaldehyde dihydrochloride] | 13.5 | 142 | 14.5 | 153 | 16.0 | 168 | 16.0 | 168 | 25.0 | 147 | 28.0 | 165 | 33.5 | 197 | 19.0 | 200 | Median Survival (melanotic melanoma B16; [21]): 24.0 days; T/C × 100 (melanotic melanoma B16; [22]): 141%
O=c1[nH]cc(F)c(=O)[nH]1 [5-Fluorouracil, reference compound] | – | – | – | – | – | – | – | – | – | – | – | – | – | – | – | – | Median Survival [4, 23]: 19.0 days and 18 days; T/C × 100 [4, 23]: 181% and 164%; Median Survival [4, 24]: 15.0 days and 18.5 days; T/C × 100 [4, 24]: 158% and 185%; T/C × 100 ([4]; mouse, in vivo, ip): 158; Median Survival (melanotic melanoma B16; [25]): 30 days and 28.5 days; T/C × 100 (melanotic melanoma B16; [25]): 187% and 168%
C(=NNC1=NCCN1)C1c2ccccc2C(C=NNC2=NCCN2)c2ccccc21 (centres unmarked) [Bis(2-imidazolin-2-ylhydrazone)-9,10-dihydro-9,10-anthracenedicarboxaldehyde dihydrochloride] | – | – | – | 129 | – | 152 | – | – | 22.0 | 138 | 25.0 | 156 | 32.0 | 200 | – | – | Median Survival ([4]; 6.25 mg./kg., i.p. days 1, 5 and 9, dihydrochloride): 13 days; Median Survival ([4]; 12.5 mg./kg., i.p. days 1, 5 and 9, dihydrochloride): 16 days; Median Survival (melanotic melanoma B16; [21]): 21.0 days; T/C × 100 (melanotic melanoma B16; [22]): 131%
C(=NNC1=NCCN1)C1c2ccccc2C(C=NNC2=NCCN2)c2ccccc21 (centres unmarked) [Bis(2-imidazolin-2-ylhydrazone)-9,10-dihydro-9,10-anthracenedicarboxaldehyde] | 14 | 127 | 16.5 | 150 | 16.5 | 150 | 17.5 | 159 | – | – | – | – | – | – | 20 | 182 | Median Survival ([4]; 100 mg./kg., i.p. days 1, 5 and 9): 19.5 days; T/C × 100 ([4]; 100 mg./kg., i.p. days 1, 5 and 9, efficacy criterion ≥125%): 177%; Median Survival ([4]; 200 mg./kg., i.p. days 1, 5 and 9): 23 days; Median Survival ([4]; 400 mg./kg., i.p. days 1, 5 and 9): 25 days; T/C × 100 ([4]; 400 mg./kg., i.p. days 1, 5 and 9, efficacy criterion ≥125%): 227%; T/C × 100 ([4]; mouse, in vivo, ip): 209; MIC [1]: 64 µg/mL (≈ 160 µM); MIC [2]: 128 µg/mL (≈ 320 µM); MIC [3]: 32 µg/mL (≈ 79.9 µM); MIC (Enterococcus SM 77-15): 16 µg/mL (≈ 40 µM)
COc1ccc(OC)c2c1C(C=NNC1=NCCN1)c1ccccc1C2C=NNC1=NCCN1 (centres unmarked) [Bis-(2-imidazolin-2-ylhydrazone)-1,4-dimethoxy-9,10-dihydro-9,10-anthracenedicarboxaldehyde dihydrochloride] | – | – | – | – | – | – | – | – | – | – | – | – | – | – | – | – | Minimal Inhibitory Concentration ([3]; 18 hours, dihydrochloride): 128 µg/mL
